Assay results published in US20240327406A1, “POTASSIUM CHANNEL MODULATORS” (Autifony Therapeutics Limited, priority 2021, published 2024).
Values joined by “and” are separate entries in the source; they are usually repeats but may differ in a detail not shown here. Identical values can stand only once. Like-named read-outs stand apart in the source and are kept apart here.

Biological target: T1, human Kv3.1 channels (hKv3.1) (Homo sapiens, UniProt P48547)
T1 sequence (P48547 1-501 limits assumed): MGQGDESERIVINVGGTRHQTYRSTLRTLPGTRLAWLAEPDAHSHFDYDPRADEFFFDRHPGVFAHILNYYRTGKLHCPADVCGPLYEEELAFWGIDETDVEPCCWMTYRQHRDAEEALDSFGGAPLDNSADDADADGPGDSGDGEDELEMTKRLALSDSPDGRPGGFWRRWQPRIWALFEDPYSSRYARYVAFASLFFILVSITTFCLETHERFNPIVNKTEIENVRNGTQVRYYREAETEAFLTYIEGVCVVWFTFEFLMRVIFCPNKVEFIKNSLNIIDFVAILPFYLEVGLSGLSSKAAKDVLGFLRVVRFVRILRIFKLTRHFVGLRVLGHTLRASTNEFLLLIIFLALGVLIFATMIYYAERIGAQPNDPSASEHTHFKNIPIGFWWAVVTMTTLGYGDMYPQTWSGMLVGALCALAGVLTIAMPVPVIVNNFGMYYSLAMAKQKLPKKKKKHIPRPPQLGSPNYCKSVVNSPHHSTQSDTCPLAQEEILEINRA
Assay: Measurement of Kv3 channel modulation: Kv3.1 assay (IonWorks Quattro whole-cell electrophysiology)
Format: cell-based
Conditions: for Kv3.1 max R %: normalised to maximum effect of reference compound (50 microM)
Procedure: The ability of the compounds of the invention to modulate the voltage-gated potassium channel subtypes Kv3.4/Kv3.3/Kv3.2/Kv3.1 may be determined using the following assay. Analogous methods may be used to investigate the ability of the compounds of the invention to modulate other channel subtypes.
Human embryonic kidney (HEK)-hKv3.1 cell line is generated by transfecting HEK-293 cells with an expression vector with human Kv3.1 (NM_004976.4). Cells are cultured with MEM supplemented with 10% Heat-Inactivated FBS, 2 mM L-glutamine, 1% Penicillin-Streptomycin, and 0.6 mg/ml of Geneticin (G418). HEK-hKv3.1b cells were amplified in T175 cm2 flask at 37° C. with 5% CO2, using MEM amplification medium, containing the G418 selection antibiotic (0.6 mg/ml). Cells were detached every 3-4 days, using DPBS to wash twice the flask, then TrypLE to dislodge the cells, and re-plated at a density of 2-4×10^6 cells/flask.
The day of the experiment, cells are removed from the incubator and the culture medium removed. Cells are washed with 5 ml of Dulbecco's PBS (DPBS) calcium and magnesium free and detached by the addition of 3 ml Versene (Invitrogen, Italy) followed by a brief incubation at 37° C. for 5 minutes. The flask is tapped to dislodge cells and 10 ml of DPBS containing calcium and magnesium is added to prepare a cell suspension. The cell suspension is then placed into a 15 ml centrifuge tube and centrifuged for 2 min at 1200 rpm. After centrifugation, the supernatant is removed and the cell pellet re-suspended in 4 ml of DPBS containing calcium and magnesium using a 5 ml pipette to break up the pellet. Cell suspension volume is then corrected to give a cell concentration for the assay of approximately 3 million cells per ml.
Experiments are conducted at r.t. using IonWorks Quattro™ planar array electrophysiology technology (Molecular Devices Corp.) with PatchPlate™ PPC. Stimulation protocols and data acquisition are carried out using a microcomputer (Dell Pentium 4). Planar electrode hole resistances (Rp) are determined by applying a 10 mV voltage step across each well. These measurements are performed before cell addition. After cell addition and seal formation, a seal test is performed by applying a voltage step from −80 mV to −70 mV for 160 ms. Following this, amphotericin-B solution is added to the intracellular face of the electrode to achieve intracellular access. Cells are held at −70 mV. Leak subtraction is conducted in all experiments by applying 50 ms hyperpolarizing (10 mV) prepulses to evoke leak currents followed by a 20 ms period at the holding potential before test pulses.
For hKv3.2 and hKv3.1, assays from the holding potential of −70 mV, a first test pulse at −15 mV was applied for 100 ms and after 100 ms at −70 mV a second pulse at +40 mV was applied for 50 ms. Cells were then maintained for 100 ms at −100 mV and another pulse from […] to +40 mV (duration 50 ms) was applied to clamp later the voltage at −40 mV during 200 ms
The intracellular solution contains the following (in mM): K-gluconate 100, KCl 54, MgCl2 3.2, HEPES 5, adjusted to pH 7.3 with KOH. Amphotericin-B solution is prepared as 50 mg/ml stock solution in DMSO and diluted to a final working concentration of 0.1 mg/ml in intracellular solution.
Compounds of use in the invention (or reference compounds such as N-cyclohexyl-N-[(7,8-dimethyl-2-oxo-1,2-dihydro-3-quinolinyl)methyl]-N′-phenylurea) are dissolved in dimethylsulfoxide (DMSO) at a stock concentration of 10 mM. […] Each dilution (1 μL) is transferred to another compound plate and external solution containing 0.05% pluronic acid (66 μL) is added. 3.5 μL from each plate containing a compound of the invention is added and incubated with the cells during the IonWorks Quattro™ experiment. The final assay dilution is 200 and the final compound concentrations are in the range 50 μM to 50 nM.

[1] = Table 2, Example compounds, rounded to one decimal place, some compounds with two data sets (n given in cell), read-out: Kv3.1 pEC50 (converted)
[2] = Table 3, Reference Examples and corresponding Examples, rounded to one decimal place, read-out: Kv3.1 pEC50 (converted)

Row | Compound | Kv3.1 max R % (Table 2, Example compounds) | EC50 [1] | EC50 [2] [nM] | EC50 (Kv3.1 pEC50, Table 2, Example compounds, rounded to one decimal place, some compounds with two data sets (n given in cell)) [nM] | EC50 (Table 5, Example compounds, read-out: Kv3.1 pEC50 (converted)) [nM]
1 | Cc1ccc(Oc2ccc(-n3c(=O)[nH]c4cccnc43)cn2)c2c1OCC21CC1 [Example 1, 3-[6-(7-methylspiro[2H-benzofuran-3,1′-cyclopropane]-4-yl)oxy-3-pyridyl]-1H-imidazo[4,5-b]pyridin-2-one] | 148% | 200 nM | 200 |  | 
2 | Cc1ccc(Oc2ccc(-n3c(=O)[nH]c4c(C)ccnc43)cn2)c2c1OCC21CC1 [Example 2, 7-methyl-3-[6-(7-methylspiro[2H-benzofuran-3,1′-cyclopropane]-4-yl)oxy-3-pyridyl]-1H-imidazo[4,5-b]pyridin-2-one] | 83% | 158 nM |  |  | 
3 | O=c1[nH]c2cccnc2n1-c1ccc(Oc2cccc3c2C2(CC2)CO3)nc1 [Example 3, 3-(6-spiro[2H-benzofuran-3,1′-cyclopropane]-4-yloxy-3-pyridyl)-1H-imidazo[4,5-b]pyridin-2-one] | 197% |  |  | 100 | 
4 | Cc1ccnc2c1[nH]c(=O)n2-c1ccc(Oc2cccc3c2C2(CC2)CO3)nc1 [Example 5, 7-methyl-3-(6-spiro[2H-benzofuran-3,1′-cyclopropane]-4-yloxy-3-pyridyl)-1H-imidazo[4,5-b]pyridin-2-one] | 132% | 316 nM |  |  | 
5 | O=c1[nH]c2cccnc2n1-c1ccc(Oc2cccc3c2C2(CC2)CO3)cn1 [Example 6, 3-(5-spiro[2H-benzofuran-3,1′-cyclopropane]-4-yloxy-2-pyridyl)-1H-imidazo[4,5-b]pyridin-2-one] | 221% | 2000 nM |  |  | 
6 | O=c1[nH]c2cccnc2n1-c1ccc(Oc2cccc(OC(F)(F)F)c2)nc1 [Example 7, 3-[6-[3-(trifluoromethoxy)phenoxy]-3-pyridyl]-1H-imidazo[4,5-b]pyridin-2-one] | 89% and 96% | 501 nM and 398 nM | 398 |  | 398
7 | CC1(C)COc2cccc(Oc3cnc(-n4c(=O)[nH]c5cccnc54)cn3)c21 [Example 9, 3-[5-[(3,3-dimethyl-2H-benzofuran-4-yl)oxy]pyrazin-2-yl]-1H-imidazo[4,5-b]pyridin-2-one] | 147% | 1260 nM |  |  | 
8 | O=c1[nH]c2cccnc2n1-c1cnc(Oc2cccc(OC(F)(F)F)c2)cn1 [Example 10, 3-[5-[3-(trifluoromethoxy)phenoxy]pyrazin-2-yl]-1H-imidazo[4,5-b]pyridin-2-one] | 94% | 2000 nM |  |  | 
9 | Cc1ccc(Oc2cnc(-n3c(=O)[nH]c4cccnc43)cn2)c2c1OCC21CC1 [Example 11, 3-[5-(7-methylspiro[2H-benzofuran-3,1′-cyclopropane]-4-yl)oxypyrazin-2-yl]-1H-imidazo[4,5-b]pyridin-2-one] | 205% | 316 nM |  |  | 
10 | CC1(C)COc2cccc(Oc3ccc(-n4c(=O)[nH]c5cccnc54)cn3)c21 [Example 12, 3-[6-[(3,3-dimethyl-2H-benzofuran-4-yl)oxy]-3-pyridyl]-1H-imidazo[4,5-b]pyridin-2-one] | 164% | 316 nM |  |  | 
11 | N#Cc1ccc(Oc2ccc(-n3c(=O)[nH]c4cccnc43)cn2)cc1OC(F)(F)F [Example 14, 4-[[5-(2-oxo-1H-imidazo[4,5-b]pyridin-3-yl)-2-pyridyl]oxy]-2-(trifluoromethoxy)benzonitrile] | 124% | 1000 nM |  |  | 
12 | Cc1ccnc2c1[nH]c(=O)n2-c1cnc(Oc2cccc3c2C2(CC2)CO3)nc1 [Example 15, 7-methyl-3-(2-spiro[2H-benzofuran-3,1′-cyclopropane]-4-yloxypyrimidin-5-yl)-1H-imidazo[4,5-b]pyridin-2-one] | 201% | 1000 nM |  |  | 
13 | COc1cccc(Oc2ncc(-n3c(=O)[nH]c4cccnc43)cn2)c1 [Example 16, 3-[2-(3-methoxyphenoxy)pyrimidin-5-yl]-1H-imidazo[4,5-b]pyridin-2-one] | 124% | 3160 nM |  |  | 
14 | Cn1cc2[nH]c(=O)n(-c3ccc(Oc4cccc5c4C4(CC4)CO5)nc3)c2n1 [Example 18, 2-methyl-6-(6-spiro[2H-benzofuran-3,1′-cyclopropane]-4-yloxy-3-pyridyl)-4H-imidazo[4,5-c]pyrazol-5-one] | 148% | 251 nM |  |  | 
15 | Cc1ccc(Oc2ccc(-n3c(=O)[nH]c4cn(C)nc43)cn2)c2c1OCC21CC1 [Example 19, 2-methyl-6-[6-(7-methylspiro[2Hbenzofuran-3,1′-cyclopropane]-4-yl)oxy-3-pyridyl]-4H-imidazo[4,5-c]pyrazol-5-one] | 99% | 316 nM |  |  | 
16 | Cn1cc2[nH]c(=O)n(-c3ccc(Oc4cccc5c4C(C)(C)CO5)nc3)c2n1 [Example 20, 6-[6-[(3,3-dimethyl-2H-benzofuran-4-yl)oxy]-3-pyridyl]-2-methyl-4H-imidazo[4,5-c]pyrazol-5-one] | 145% and 155% | 794 nM and 631 nM |  |  | 
17 | Cn1cc2[nH]c(=O)n(-c3cnc(Oc4cccc5c4C4(CC4)CO5)cn3)c2n1 [Example 21, 2-methyl-6-(5-spiro[2H-benzofuran-3,1′-cyclopropane]-4-yloxypyrazin-2-yl)-4H-imidazo[4,5-c]pyrazol-5-one] | 96% | 10000 nM |  |  | 
18 | Cn1cc2[nH]c(=O)n(-c3cnc(Oc4cccc5c4C4(CC4)CO5)nc3)c2n1 [Example 22, 2-methyl-6-(2-spiro[2H-benzofuran-3,1′-cyclopropane]-4-yloxypyrimidin-5-yl)-4H-imidazo[4,5-c]pyrazol-5-one] | 166% | 501 nM |  |  | 
19 | CC1(C)COc2cccc(Oc3ncc(-n4c(=O)[nH]c5ccncc54)cn3)c21 [Example 23, 3-[2-[(3,3-dimethyl-2H-benzofuran-4-yl)oxy]pyrimidin-5-yl]-1H-imidazo[4,5-c]pyridin-2-one] | 101% and 107% | 10000 nM and 7940 nM | 7940 |  | 
20 | Cc1ncc2[nH]c(=O)n(-c3ccc(Oc4ccc(C)c5c4C4(CC4)CO5)nc3)c2n1 [Example 25, 2-methyl-9-[6-(7-methylspiro[2H-benzofuran-3,1′-cyclopropane]-4-yl)oxy-3-pyridyl]-7H-purin-8-one] | 190% | 316 nM |  |  | 
21 | Cc1ncc2[nH]c(=O)n(-c3ccc(Oc4ccc(C)c(OC(F)(F)F)c4)nc3)c2n1 [Example 27, 2-methyl-9-[6-[4-methyl-3-(trifluoromethoxy)phenoxy]-3-pyridyl]-7H-purin-8-one] | 134% and 138% | 1580 nM and 1260 nM |  |  | 
